# Publication PMC4865845, “A human genome-wide loss-of-function screen identifies effective chikungunya antiviral drugs” (Nature Communications, 2016)
# Tested on: CHIKV
# Type: cell-based, chikungunya virus
substance,measurement,value
Hs_U2AF2_3 (TAAGACGAATTTGCTCATTAA; chemistry not given here),Score_si1,2.74
Hs_UBE2C_3 (GCCCTTGTATATTAAATAAAT; chemistry not given here) [reference compound],Score_si4,-0.41
Hs_UBE2C_4 (CAGGACCATTCTGCTCTCCAT; chemistry not given here) [reference compound],Score_si3,-0.75
Hs_UBE2C_8 (GAGCCCTTGTATATTAAATAA; chemistry not given here) [reference compound],Score_si1,-1.05
Hs_UBE2C_9 (AGCCCTTGTATATTAAATAAA; chemistry not given here) [reference compound],Score_si2,-0.83
Hs_UIP1_3 (CTCGAGGGTCTGTATATCACA; chemistry not given here) [reference compound],Score_si4,0.1
Hs_ULK2_6 (CAGCCTGAGATACGTGCCTTA; chemistry not given here) [reference compound],Score_si1,-2.62
Hs_UMPS_1 (CACCGCATTGATACTATAATA; chemistry not given here),Score_si4,1.35
Hs_UMPS_2 (CAGGAGAAACCTGTTTAATCA; chemistry not given here),Score_si1,3.14
Hs_UMPS_4 (AAGCTTCTCAGGCTTATGCAA; chemistry not given here),Score_si3,1.59
Hs_UQCRFS1_1 (CAGCATGATCTAGATCGAGTA; chemistry not given here),Score_si1,3.18
Hs_UQCRFS1_2 (CAAACATTAATGTGAAATAAA; chemistry not given here),Score_si4,0.3
Hs_WDR40A_1 (CAGCATCAATGTGATTAGTAA; chemistry not given here) [reference compound],Score_si1,-2.68
Hs_WDR40A_2 (AACACTGATAATAGGAAGTAA; chemistry not given here) [reference compound],Score_si4,-0.22
Hs_WIG1_1 (CAGCATTTAGAGAGCAAGCAA; chemistry not given here),Score_si1,2.55
Hs_WIG1_2 (CAGGCTCATTATCAGGGTAAA; chemistry not given here),Score_si4,-0.33
Hs_XRN1_1 (CAGGTCGTAAATATCAAATAA; chemistry not given here),Score_si3,1.08
Hs_XRN1_2 (AAGGAAATAGATAAACTGTAA; chemistry not given here),Score_si1,1.94
Hs_YEATS4_1 (AAGGGTGTTACTATCGTTAAA; chemistry not given here),Score_si1,1.23
Hs_YEATS4_2 (TTGGTAGTAAGCTAAACTGAA; chemistry not given here),Score_si2,1.07
Hs_YEATS4_3 (AAAGGGTGTTACTATCGTTAA; chemistry not given here),Score_si3,0.92
Hs_ZA20D1_1 (AAGGAGGTTCTCAGTCAATAA; chemistry not given here),Score_si2,1.25
Hs_ZA20D1_2 (CAGGATGACATCGTTCAAGAA; chemistry not given here),Score_si3,1.15
Hs_ZBTB24_1 (CTCCAGGAAATTAAATATTTA; chemistry not given here),Score_si2,1.74
Hs_ZBTB24_2 (CAGCATGTGTCTGTAATTGTA; chemistry not given here),Score_si1,2.57
Hs_ZNF261_1 (AAGGTCTTATCTGAAAGGTAA; chemistry not given here) [reference compound],Score_si1,-2.35
Hs_ZZZ3_1 (CAGCCTGATGGGAACACTAAA; chemistry not given here) [reference compound],Score_si1,-2.9
Hs_ZZZ3_2 (TAGGAATTTACCTGAATATAA; chemistry not given here) [reference compound],Score_si2,-2.58
n268452 (AGCTGGCCATCGAAAGGTA; chemistry not given here),Score_si1,0.81
s29 (CCCATAATATCATTGAGAA; chemistry not given here),Score_si2,1.87
s79 (sense CCAGCTATCTATAACCTTA; chemistry not given here),Score_si4,2.02
